As a reminder, the IC50 is the concentration needed to halve the response being measured. The low end stands for inhibition by little substance, the high end for a need for much substance. The term half-life denotes the time in which the quantity being followed falls by half. Read a low half-life as rapid decline.

Structures are written as SMILES. Bounds are passed on as bounds.

The target in one data set is AUR A (Homo sapiens, UniProt O14965). The settings on record: cell-free. As for the experimental part: (§1) The tyrosine kinase activities were determined using enzyme-linked immunosorbant assay (ELISA). The serine/threonine kinase activities were detected by Caliper Mobility Shift Assay on EZ Reader (Caliper Life Sciences, MA) according to the instruction.
(§2) The kinase domain of EGFR, ErbB-2, IGF1R, VEGFR2, FGFR1, PDGFRα, c-Src, c-Met, RON, c-Kit, EphA2 and EphB2 were expressed using the Bac-to-Bac^TM baculovirus expression system (Invitrogen, Carlsbad, CA, USA) and purified on Ni-NTA columns (QIAGEN Inc., Valencia, CA, USA). VEGFR1, PDGFRβ and c-Abl were purchased from Upstate Biotechnology Inc. (Charlottesville, Virginia, USA). […] EGF was purchased from R&D, Minneapolis, […]. Poly(Glu-Tyr)(4:1), the substrate of tyrosine kinase, was from Sigma-Aldrich Corp. St. Louis, MO, USA.

For a further data set, the target named is AKT1 (Homo sapiens, UniProt P31749). The conditions noted are these: AKT1, cell-free. How it is done:
as §1, §2

Another data set has as its target GSK3b (Homo sapiens, UniProt P49841). The settings on record: cell-free. As for the experimental part:
as §1, §2

The target of another data set is CDK2 (Homo sapiens, UniProt P24941). The conditions noted are these: CDK2, cell-free. How it is done:
as §1, §2

A further data set addresses Pim2 (Homo sapiens, UniProt Q9P1W9). The conditions noted are these: Pim2, cell-free. As for the experimental part:
as §1, §2

The target of a further data set is p70S6K (Homo sapiens, UniProt P23443). The settings on record: cell-free. How it is done:
as §1, §2

In a further data set the target is PKCb2 (Homo sapiens, UniProt P05771). The conditions noted are these: PKCb2, cell-free. How it is done:
as §1, §2

Data set [1] can be described thus: Body weights in FVB-2/N^neu transgenic mouse study. The data set is classed as in vivo. The settings on record: FVB-2/N^neu mice, oral twice daily for 3 wk. From the text:
Thirty eight- to forty four-week-old female FVB/N^neu mice were obtained from Shanghai Laboratory Animal Center. The animals were housed under specific pathogen-free conditions.

The target in a further data set is T1, EGFR T790M/L858R (Homo sapiens, UniProt P00533, L858R/T790M).
T1 construct: purchased Cell Signaling Technology Inc
Description: In vitro tyrosine kinase assay (ELISA). The data set is classed as biochemical. The conditions noted are these: EGFR T790M/L858R double mutant, cell-free; means ± SD. As for the experimental part: as §1, §2
The tyrosine kinase activities were determined in 96-well ELISA plates (Corning, NY, USA) precoated with 20 μg/mL Poly (Glu,Tyr)4:1. First, 80 μL of 5 μM ATP solution diluted in kinase reaction buffer (50 mM HEPES pH 7.4, 20 mM MgCl2, 0.1 mM MnCl2, 0.2 mM Na3VO4, 1 mM DTT) was added to each well. […] Subsequently, the kinase reaction was initiated by the addition of purified tyrosine kinase proteins diluted in 10 μL of kinase reaction buffer solution. Experiments at each concentration were performed in duplicate. […]
(An ELISA detects its analyte on a solid surface through an enzyme-linked reagent.)

A short description of data set [2]: Body weights in xenograft studies. The data set is classed as in vivo. The conditions noted are these: nude mice, xenograft models, p.o. twice daily. As for the experimental part: The mice were housed and maintained under specific-pathogen free (SPF) conditions. All animal procedures were performed according to the protocol approved by the Institutional Animal Care and Use Committee at Shanghai Institute of Materia Medica, Chinese Academy of Sciences (SIMM-AE-DJ-2010-01). Under sterile conditions, well-developed tumors were cut into 1-mm^3 fragments and transplanted s.c. into the right flank of nude mice using a trocar. When the tumor reached a volume reached 100 to 200 mm^3, the mice were randomly assigned into control and treatment groups. […] The sizes of the tumors were measured twice per week using microcalipers. The tumor volume (V) was calculated as follows: V = (length×width^2)/2. The body weights of the mice were observed simultaneously.

Data set [3] relates to EGFR phosphorylation in NIH3T3-EGFR T790M/L858R cells. Description: Western blot of EGFR phosphorylation. The settings on record: 6 h, immunoblotting. It is filed as cell-based. How it is done: Cell viability was determined using sulforhodamine B assay. IC50 values were determined based on the results of three independent experiments. […] Whole-cell lysates were assayed for total EGFR and phosphorylation of EGFR by immunoblotting. […] Cell viability was determined using sulforhodamine B assay.
In general terms: A western blot detects proteins with antibodies after separation by electrophoresis.

For another data set, the target named is ErbB4 (Homo sapiens, UniProt Q15303). The conditions noted are these: ErbB4, cell-free; means ± SD. How it is done:
as §1
The tyrosine kinase activities were determined in 96-well ELISA plates (Corning, NY, USA) precoated with 20 μg/mL Poly (Glu,Tyr)4:1. First, 80 μL of 5 μM ATP solution diluted in kinase reaction buffer (50 mM HEPES pH 7.4, 20 mM MgCl2, 0.1 mM MnCl2, 0.2 mM Na3VO4, 1 mM DTT) was added to each well. […] Subsequently, the kinase reaction was initiated by the addition of purified tyrosine kinase proteins diluted in 10 μL of kinase reaction buffer solution. Experiments at each concentration were performed in duplicate. After incubation for 60 min at 37 °C, the plate was washed three times with phosphate buffered saline (PBS) containing 0.1% Tween 20 (T-PBS). Next, 100 μL anti-phosphotyrosine antibody (PY99, 1:500 dilution) diluted in T-PBS containing 5 mg/mL BSA was added. After 30 min incubation at 37 °C, the plate was washed three times as before. Horseradish peroxidase-conjugated goat anti-mouse IgG (100 μL) diluted 1:2000 in T-PBS containing 5 mg/ml BSA was added. The plate was reincubated at 37 °C for 30 min, and then washed with PBS.

A short description of data set [4]: Pharmacokinetics after single oral dose. The conditions noted are these: rat, in vivo; rats, single oral dose 90 mg/kg; unpublished data.
Data set [5] concerns EGFR and ErbB2 phosphorylation in SK-OV-3 xenograft tumors. Description: Pharmacodynamic effect in tumor extracts (Western blot). It is filed as in vivo, nude mice. The settings on record: SK-OV-3 tumors, single dose 100 mg/kg. As for the experimental part:
Tumors were harvested at indicated times (n = 3 per time point) after treatment, immediately frozen in liquid nitrogen, and then homogenized in 500 µL protein extraction solutions (SBS Genetech, Shanghai, China). Tumor extracts were subjected to SDS-PAGE followed by immunoblotting.
Body weights of the nude mice were measured concurrently (B). […] Tumors were harvested at the indicated times after treatment and immediately frozen in liquid nitrogen. Western blot analysis was performed to determine the levels of phosphorylated EGFR and ErbB2.

PKCb2, sequence (P05771 1-673 isoform P05771-2): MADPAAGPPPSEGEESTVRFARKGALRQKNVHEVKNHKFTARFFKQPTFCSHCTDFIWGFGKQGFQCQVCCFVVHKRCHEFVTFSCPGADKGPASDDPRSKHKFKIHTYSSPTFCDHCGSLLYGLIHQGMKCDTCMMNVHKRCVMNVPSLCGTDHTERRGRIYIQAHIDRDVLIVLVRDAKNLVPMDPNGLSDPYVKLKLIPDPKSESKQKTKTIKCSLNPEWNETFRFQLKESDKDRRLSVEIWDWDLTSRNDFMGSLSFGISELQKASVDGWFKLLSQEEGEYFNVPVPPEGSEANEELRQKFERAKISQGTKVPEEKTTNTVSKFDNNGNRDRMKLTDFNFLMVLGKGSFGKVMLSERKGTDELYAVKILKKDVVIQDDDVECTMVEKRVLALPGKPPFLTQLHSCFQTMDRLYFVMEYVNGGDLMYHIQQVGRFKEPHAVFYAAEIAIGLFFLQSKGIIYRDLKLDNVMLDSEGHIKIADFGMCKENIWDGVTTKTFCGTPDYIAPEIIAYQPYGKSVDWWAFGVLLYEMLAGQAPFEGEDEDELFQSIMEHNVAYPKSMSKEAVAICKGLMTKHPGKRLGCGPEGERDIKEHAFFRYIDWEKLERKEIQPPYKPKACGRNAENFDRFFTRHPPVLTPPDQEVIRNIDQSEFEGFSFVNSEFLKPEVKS
AKT1, sequence (P31749 whole entry): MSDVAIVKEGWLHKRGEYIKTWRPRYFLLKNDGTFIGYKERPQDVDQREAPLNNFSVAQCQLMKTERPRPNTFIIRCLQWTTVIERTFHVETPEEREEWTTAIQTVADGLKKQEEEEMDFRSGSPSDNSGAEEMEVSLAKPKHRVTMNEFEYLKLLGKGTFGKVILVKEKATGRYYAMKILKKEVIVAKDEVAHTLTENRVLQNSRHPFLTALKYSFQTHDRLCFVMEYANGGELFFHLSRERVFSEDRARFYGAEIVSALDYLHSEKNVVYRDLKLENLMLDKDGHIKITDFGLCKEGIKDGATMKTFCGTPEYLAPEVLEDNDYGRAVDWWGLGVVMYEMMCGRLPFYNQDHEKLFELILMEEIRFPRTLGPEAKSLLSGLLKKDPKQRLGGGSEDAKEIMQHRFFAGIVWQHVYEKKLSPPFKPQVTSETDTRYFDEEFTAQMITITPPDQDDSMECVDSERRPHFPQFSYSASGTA
GSK3b, sequence (P49841 whole entry): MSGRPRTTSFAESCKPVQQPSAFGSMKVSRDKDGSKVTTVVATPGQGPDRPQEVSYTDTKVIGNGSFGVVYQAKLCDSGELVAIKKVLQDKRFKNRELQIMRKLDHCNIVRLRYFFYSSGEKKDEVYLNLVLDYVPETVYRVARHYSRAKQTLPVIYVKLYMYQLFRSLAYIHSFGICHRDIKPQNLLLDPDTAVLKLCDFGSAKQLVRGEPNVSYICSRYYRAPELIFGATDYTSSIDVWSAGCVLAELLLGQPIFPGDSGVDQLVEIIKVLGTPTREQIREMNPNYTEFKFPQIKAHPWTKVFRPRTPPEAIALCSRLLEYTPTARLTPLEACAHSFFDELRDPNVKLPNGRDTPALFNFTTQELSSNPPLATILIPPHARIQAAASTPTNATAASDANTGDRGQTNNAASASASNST
p70S6K, sequence (P23443 whole entry): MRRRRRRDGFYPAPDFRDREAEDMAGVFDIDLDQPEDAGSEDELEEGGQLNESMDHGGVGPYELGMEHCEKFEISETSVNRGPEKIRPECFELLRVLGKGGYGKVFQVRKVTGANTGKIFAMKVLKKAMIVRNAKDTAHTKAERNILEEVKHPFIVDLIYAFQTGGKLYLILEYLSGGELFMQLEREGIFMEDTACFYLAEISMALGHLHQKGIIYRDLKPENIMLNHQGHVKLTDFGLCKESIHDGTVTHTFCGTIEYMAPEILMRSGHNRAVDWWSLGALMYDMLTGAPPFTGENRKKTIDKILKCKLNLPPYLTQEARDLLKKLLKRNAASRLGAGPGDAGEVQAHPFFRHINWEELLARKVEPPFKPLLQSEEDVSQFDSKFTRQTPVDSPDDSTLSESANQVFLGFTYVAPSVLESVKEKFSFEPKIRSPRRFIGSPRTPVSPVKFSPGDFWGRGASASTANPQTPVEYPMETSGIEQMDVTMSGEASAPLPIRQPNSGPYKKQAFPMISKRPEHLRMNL
T1 sequence (P00533 25-1210 T790M/L858R): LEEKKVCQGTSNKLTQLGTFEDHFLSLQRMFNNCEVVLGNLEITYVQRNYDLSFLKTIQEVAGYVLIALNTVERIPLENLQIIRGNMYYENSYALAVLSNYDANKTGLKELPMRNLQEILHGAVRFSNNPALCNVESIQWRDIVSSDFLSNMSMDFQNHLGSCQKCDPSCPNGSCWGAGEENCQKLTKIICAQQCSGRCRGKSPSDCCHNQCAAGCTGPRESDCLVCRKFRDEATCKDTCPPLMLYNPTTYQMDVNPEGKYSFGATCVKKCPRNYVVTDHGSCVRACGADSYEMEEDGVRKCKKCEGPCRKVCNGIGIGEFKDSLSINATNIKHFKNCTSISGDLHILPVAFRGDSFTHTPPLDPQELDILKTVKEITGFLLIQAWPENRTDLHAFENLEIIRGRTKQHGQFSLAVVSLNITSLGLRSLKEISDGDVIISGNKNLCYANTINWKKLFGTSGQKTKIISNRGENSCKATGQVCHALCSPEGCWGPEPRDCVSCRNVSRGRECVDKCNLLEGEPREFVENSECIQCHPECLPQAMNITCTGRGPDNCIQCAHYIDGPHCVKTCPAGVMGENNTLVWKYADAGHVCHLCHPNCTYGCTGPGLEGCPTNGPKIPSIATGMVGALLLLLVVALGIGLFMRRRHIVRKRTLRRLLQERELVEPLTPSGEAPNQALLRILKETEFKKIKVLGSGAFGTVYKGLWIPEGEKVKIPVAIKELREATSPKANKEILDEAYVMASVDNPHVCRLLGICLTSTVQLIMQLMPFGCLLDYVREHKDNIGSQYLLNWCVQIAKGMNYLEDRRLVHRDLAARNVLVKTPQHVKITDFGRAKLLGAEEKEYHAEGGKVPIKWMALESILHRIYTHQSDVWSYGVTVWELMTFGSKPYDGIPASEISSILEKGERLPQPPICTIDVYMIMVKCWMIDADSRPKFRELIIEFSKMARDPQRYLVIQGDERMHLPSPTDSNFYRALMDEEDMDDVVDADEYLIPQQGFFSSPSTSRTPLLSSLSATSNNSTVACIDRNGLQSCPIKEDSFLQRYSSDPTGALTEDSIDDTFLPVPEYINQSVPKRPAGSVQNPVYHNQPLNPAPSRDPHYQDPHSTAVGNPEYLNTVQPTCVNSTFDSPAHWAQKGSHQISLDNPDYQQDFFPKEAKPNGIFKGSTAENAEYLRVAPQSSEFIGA
AUR A, sequence (O14965 whole entry, the tested form may be a part): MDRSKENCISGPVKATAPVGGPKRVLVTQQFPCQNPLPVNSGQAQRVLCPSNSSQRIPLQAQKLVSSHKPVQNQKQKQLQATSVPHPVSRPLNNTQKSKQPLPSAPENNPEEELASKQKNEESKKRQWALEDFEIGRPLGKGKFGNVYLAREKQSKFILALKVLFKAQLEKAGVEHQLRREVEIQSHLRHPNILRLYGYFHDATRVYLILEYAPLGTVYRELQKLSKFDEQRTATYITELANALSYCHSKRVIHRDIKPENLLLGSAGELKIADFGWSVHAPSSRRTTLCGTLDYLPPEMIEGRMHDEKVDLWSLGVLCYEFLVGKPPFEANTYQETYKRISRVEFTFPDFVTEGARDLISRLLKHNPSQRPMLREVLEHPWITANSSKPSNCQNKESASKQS
Pim2, sequence (Q9P1W9 whole entry): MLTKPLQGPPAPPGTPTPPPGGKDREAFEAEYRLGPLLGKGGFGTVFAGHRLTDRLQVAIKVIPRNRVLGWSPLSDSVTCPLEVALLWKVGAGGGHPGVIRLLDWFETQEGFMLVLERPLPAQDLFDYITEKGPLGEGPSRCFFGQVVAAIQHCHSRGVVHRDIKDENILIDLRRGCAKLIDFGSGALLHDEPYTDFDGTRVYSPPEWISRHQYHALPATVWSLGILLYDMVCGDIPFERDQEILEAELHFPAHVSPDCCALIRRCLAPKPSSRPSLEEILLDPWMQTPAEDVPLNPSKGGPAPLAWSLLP

Consider `C=CC(=O)Nc1ccc2ncnc(Nc3ccc(OCc4cccc(F)c4)c(Cl)c3)c2c1` [AST1306], for which the IC50 against AUR A, against AKT1, against GSK3b, against CDK2, on Pim2 and against p70S6K was above 10 µM each time. In addition, the IC50 was above 10 µM on PKCb2, 0.012 ± 0.002 µM against EGFR T790M/L858R and 0.0008 ± 0.0003 µM against ErbB4. Moreover, the “decrease of body weights during treatment” value in data set [1] is recorded as “less than 20%”. For the same compound, in data set [2], the “body weights during treatment” value is “no obvious differences”. Moreover, the “inhibition of EGFR phosphorylation” value in data set [3] is listed as “effectively inhibited EGFR phosphorylation”. For the same compound, in data set [4], the half-life was below 3.6 h. Besides, the “time to evident inhibition of EGFR and ErbB2 activation in tumors” value in [5] is at most 2 h.

The values are drawn from PMC3138742 (PLoS ONE, 2011).
